# Patent US11478471B2, “Methods and compositions for treating diabetes, metabolic syndrome and other conditions” (priority 2005, dated 2022)
# “Also recorded” adds a separate entry of the source. Read-outs that look alike come from different tables or passages of the source.
# Columns and labels:
# [1] = Toxicokinetics of racemic ketoconazole in another 28-day dog study (b); conditions: dogs; for Cmax / AUC(0-t) / concentration at 0 h / concentration at 1 h / concentration at 2 h / concentration at 4 h / concentration at 8 h / concentration at 12 h / Tmax: beagle, dog, plasma, po; for AUC(0-t): AUC(0-12), footnote: AUC data is for 0-24 h; for concentration at 0 h / concentration at 1 h / concentration at 2 h / concentration at 4 h / concentration at 8 h / concentration at 12 h: Drug concentration in plasma; for Tmax: Tmax Range
# Excerpt: Two groups of three male and three female dogs per group were studied.
# Toxicokinetic samples were collected on Day 1 and during Weeks 2 and 4. […] For the following Table: *Days of treatment.
# rat hepatocytes = conditions: cultured rat hepatocytes, four hours exposure; cited from earlier work
# [2] = read-out: Cmax of unmetabolized ketoconazole; humans, 400 mg dose; cited from earlier work
# Cryptococcus neoformans = assay: Antifungal MIC; format: cell-based
# testosterone levels = assay: Testosterone levels in rats after oral dosing; format: in vivo, Sprague Dawley rats; conditions: for Testosterone levels (mean ± SEM): 4 h after gavage
# Excerpt: There was a single control group (dosed with vehicle).
# The means of the vehicle treated groups are used as the time zero control point.
# Candida parapsilosis = assay: Antifungal MIC; format: cell-based; conditions: Lodderomyces parapsilosis
# [3] = SBA for NDA 18-533; cited from earlier work
# Candida tropicalis = assay: Antifungal MIC; format: cell-based
# [4] = female, 10 mg/kg, study b, powder, 10 mg/kg oral, day 1, F
# [5] = female, 10 mg/kg, study b, powder, 10 mg/kg oral, day 28, F
# [6] = female, 40 mg/kg, study b, powder, 40 mg/kg oral, day 1, F
# [7] = female, 40 mg/kg, study b, powder, dose and days not printed in the row (40 mg/kg, day 28), F
# [8] = female, 40 mg/kg, study b, powder, 40 mg/kg oral, day 28, F
# [9] = male, 10 mg/kg, study b, powder, 10 mg/kg oral, day 1, M
# [10] = male, 10 mg/kg, study b, powder, 10 mg/kg oral, day 28, M
# [11] = male, 40 mg/kg, study b, powder, 40 mg/kg oral, day 1, M
# [12] = male, 40 mg/kg, study b, powder, dose and days not printed in the row (40 mg/kg, day 28), M
# [13] = male, 40 mg/kg, study b, powder, 40 mg/kg oral, day 28, M
structure (smiles),measurement,setting,value
"CC(=O)N1CCN(c2ccc(OCC3COC(Cn4ccnc4)(c4ccc(Cl)cc4Cl)O3)cc2)CC1 (racemic) [Racemic ketoconazole, 1-acetyl-4-[4-[[2-(2,4-dichlorophenyl)-2-[(1H-imidazol-1-yl)-methyl]-1,3-dioxolan-4-yl]methoxy]phenyl]piperazine]",Cmax,"[1]; both, 10 mg/kg, 10 mg/kg, day 28",7520 to 9200 ng/mL
same,Cmax,"[1]; both, 40 mg/kg, 40 mg/kg, day 28",42800 to 46800 ng/mL
same,"change of exposure (AUC, Cmax) with repeat dosing, day 28 vs day 1",[1]; daily oral dosing for 28 days,AUC determined after a single dose was significantly reduced in comparison to the AUC determined after 28 daily doses; also recorded: significant increase between day 1 and day 28
same,AUC(0-t),[1]; [4],6730 ng·h/mL
same,AUC(0-t),[1]; [5],33100 ng·h/mL
same,Cmax,[1]; [4],1580 ng/mL
same,Cmax,[1]; [5],7520 ng/mL
same,concentration at 0 h,[1]; [4],< 250 ng/mL
same,concentration at 1 h,[1]; [4],1300 ng/mL
same,concentration at 2 h,[1]; [4],1230 ng/mL
same,concentration at 4 h,[1]; [4],590 ng/mL
same,concentration at 8 h,[1]; [4],< 250 ng/mL
same,concentration at 12 h,[1]; [4],< 250 ng/mL
same,concentration at 0 h,[1]; [5],< 250 ng/mL
same,concentration at 1 h,[1]; [5],7280 ng/mL
same,concentration at 2 h,[1]; [5],7210 ng/mL
same,concentration at 4 h,[1]; [5],4390 ng/mL
same,concentration at 8 h,[1]; [5],850 ng/mL
same,concentration at 12 h,[1]; [5],< 250 ng/mL
same,Tmax,[1]; [4],1 to 8 h
same,Tmax,[1]; [5],1 to 2 h
same,AUC(0-t),[1]; [6],42900 ng·h/mL
same,AUC(0-t),[1]; [7],639000 ng·h/mL
same,Cmax,[1]; [6],6230 ng/mL
same,Cmax,[1]; [7],42800 ng/mL
same,concentration at 0 h,[1]; [6],< 250 ng/mL
same,concentration at 1 h,[1]; [6],5650 ng/mL
same,concentration at 2 h,[1]; [6],5760 ng/mL
same,concentration at 4 h,[1]; [6],3300 ng/mL
same,concentration at 8 h,[1]; [6],1840 ng/mL
same,concentration at 12 h,[1]; [6],1550 ng/mL
same,concentration at 0 h,[1]; [8],12800 ng/mL
same,concentration at 1 h,[1]; [8],12300 ng/mL
same,concentration at 2 h,[1]; [8],31600 ng/mL
same,concentration at 4 h,[1]; [8],38600 ng/mL
same,concentration at 8 h,[1]; [8],40400 ng/mL
same,concentration at 12 h,[1]; [8],29900 ng/mL
same,Tmax,[1]; [6],2 to 12 h
same,Tmax,[1]; [7],4 to 8 h
same,AUC(0-t),[1]; [9],9010 ng·h/mL
same,AUC(0-t),[1]; [10],44200 ng·h/mL
same,Cmax,[1]; [9],1430 ng/mL
same,Cmax,[1]; [10],9200 ng/mL
same,concentration at 0 h,[1]; [9],< 250 ng/mL
same,concentration at 1 h,[1]; [9],380 ng/mL
same,concentration at 2 h,[1]; [9],620 ng/mL
same,concentration at 4 h,[1]; [9],1180 ng/mL
same,concentration at 8 h,[1]; [9],330 ng/mL
same,concentration at 12 h,[1]; [9],< 250 ng/mL
same,concentration at 0 h,[1]; [10],< 250 ng/mL
same,concentration at 1 h,[1]; [10],7530 ng/mL
same,concentration at 2 h,[1]; [10],8630 ng/mL
same,concentration at 4 h,[1]; [10],6200 ng/mL
same,concentration at 8 h,[1]; [10],1440 ng/mL
same,concentration at 12 h,[1]; [10],430 ng/mL
same,Tmax,[1]; [9],2 to 4 h
same,Tmax,[1]; [10],1 to 2 h
same,AUC(0-t),[1]; [11],180000 ng·h/mL
same,AUC(0-t),[1]; [12],542000 ng·h/mL
same,Cmax,[1]; [11],23300 ng/mL
same,Cmax,[1]; [12],46800 ng/mL
same,concentration at 0 h,[1]; [11],< 250 ng/mL
same,concentration at 1 h,[1]; [11],10300 ng/mL
same,concentration at 2 h,[1]; [11],14600 ng/mL
same,concentration at 4 h,[1]; [11],23100 ng/mL
same,concentration at 8 h,[1]; [11],10100 ng/mL
same,concentration at 12 h,[1]; [11],6700 ng/mL
same,concentration at 0 h,[1]; [13],3970 ng/mL
same,concentration at 1 h,[1]; [13],11900 ng/mL
same,concentration at 2 h,[1]; [13],24600 ng/mL
same,concentration at 4 h,[1]; [13],32700 ng/mL
same,concentration at 8 h,[1]; [13],46800 ng/mL
same,concentration at 12 h,[1]; [13],28300 ng/mL
same,Tmax,[1]; [11],2 to 4 h
same,Tmax,[1]; [12],8 h
same,concentrations with no detectable effect on LDH release,rat hepatocytes,below 75 microM
same,Cmax,[2],12.3 µM
same,MIC,"Cryptococcus neoformans; DSM11959, DSM strain 11959, 48 h",0.06 µg/mL
same,MIC,"Cryptococcus neoformans; DSM11960, DSM strain 11960, 48 h",0.125 µg/mL
same,Testosterone levels (mean ± SEM),testosterone levels; single oral 50 mg/kg,2.7 ± 0.6 nmol/L
same,Testosterone levels (mean ± SEM),testosterone levels; single oral 100 mg/kg,1.7 ± 0.5 nmol/L
same,"Testosterone levels (mean ± SEM), time course","testosterone levels; single oral 200 mg/kg, 4 h",1.6 ± 0.6 nmol/L
same,Testosterone levels (mean ± SEM),testosterone levels; single oral 200 mg/kg,0.4 ± 0.2 nmol/L
same,"Testosterone levels (mean ± SEM), time course","testosterone levels; single oral 200 mg/kg, 8 h",8.0 ± 1.0 nmol/L
same,"Testosterone levels (mean ± SEM), time course","testosterone levels; single oral 200 mg/kg, 12 h",4.6 ± 0.6 nmol/L
same,"Testosterone levels (mean ± SEM), time course","testosterone levels; single oral 200 mg/kg, 16 h",3.8 ± 0.5 nmol/L
same,"Testosterone levels (mean ± SEM), time course","testosterone levels; single oral 200 mg/kg, 20 h",5.6 ± 0.8 nmol/L
same,"Testosterone levels (mean ± SEM), time course","testosterone levels; single oral 200 mg/kg, 24 h",5.9 ± 0.5 nmol/L
same,Testosterone levels (mean ± SEM),testosterone levels; single oral 400 mg/kg,0.4 ± 0.2 nmol/L
same,Testosterone levels (mean ± SEM),testosterone levels; single oral 600 mg/kg,0.8 ± 0.1 nmol/L
same,MIC,"Candida parapsilosis; DSM05784, 48 h",0.03 µg/mL
same,MIC,"Candida parapsilosis; DSM11224, 48 h",< 0.015 µg/mL
same,carcinogenicity,[3],non-carcinogenic
same,MIC,"Candida tropicalis; DSM11951, 48 h",0.125 µg/mL
same,MIC,"Candida tropicalis; DSM11952, 48 h",4 µg/mL
same,MIC,"Candida tropicalis; DSM11953, 48 h",0.06 µg/mL
